Key:
[1] = tested on: extracellular ACh and dopamine in cerebral cortex and hippocampus; assay: extracellular neurotransmitter concentrations in brain; type: in vivo
Source text: (§1) Experiments have shown that ST101 potentiates nicotine-stimulated release of acetylcholine (ACh), increases extracellular ACh concentrations in the cerebral cortex, and increases extracellular concentrations of both ACh and dopamine in the hippocampus.

[2] = tested on: rodent models of learning and memory; conditions: cited from earlier work
[3] = known from other studies; cited from earlier work
[4] = tested on: nicotine-stimulated release of acetylcholine (ACh); assay: nicotine-stimulated release of acetylcholine
Source text: as §1

[5] = tested on: Senescence Accelerated Mouse P8 (SAMP8); conditions: cited from earlier work
[6] = tested on: rodent models of learning and memory; assay: rodent models of learning and memory (age-impaired memory, chemical amnesic agents); type: in vivo; conditions: after both acute (single-dose) and chronic administration
Source text: The chemical name for ST101 is spiro(imidazo(1,2-a)pyridin-2(3H)-one-3,2′-indan).
(Yamaguchi Y., et al., J. Pharmacol. Exp. Ther. 317:1079-87 (2006); Ito Y., et al., J. Pharmacol. Exp. Ther. 320: 819-27 (2007)).

With `O=C1N=C2C=CC=CN2C12Cc1ccccc1C2` [ST101, spiro(imidazo(1,2-a)pyridin-2(3H)-one-3,2′-indan)] the “extracellular ACh concentrations” value ([1]; cerebral cortex) was “increases”, the “extracellular concentration of ACh” value ([1]; hippocampus) was “increases” and the “extracellular concentration of dopamine” value ([1]; hippocampus) was “increases”. The “memory deficits induced by methamphetamine” value ([2]; chemical amnesic agent methamphetamine) was “attenuates”, the “memory deficits induced by MK-801” value ([2]; glutamate receptor antagonist MK-801) was “attenuates” and the age-impaired memory ([2]; in vivo) was “significantly improves”. For the same compound, the “memory deficits induced by scopolamine” value ([2]; muscarinic antagonist scopolamine) was “attenuates”, the neuroprotective activity [3] was “has neuroprotective activity” and the “nicotine-stimulated release of acetylcholine (ACh)” value [4] was “potentiates”. The “accumulation of Aβ-like deposits” value ([5]; SAMP8 mouse brain tissue) was “decreased”, the “learning and memory functions” value ([5]; SAMP8 mouse) was “improvement” and the “pharmacological activity in rodent models of learning and memory relevant to AD” value [6] was “has shown pharmacological activity”.

Reference: patent US20100256173A1, “Method of Treating Cognitive Impairment” (priority 2009, published 2010)
